Source: US20210382058A1, “PATIENT SELECTION FOR TREATMENT OF MYC POSITIVE CANCERS WITH INDENOISOQUINOLINES” (Purdue Research Foundation, priority 2020, published 2021)
Where two headings read alike, the source gives them in different places.

Assays:
NCI-60 cancer cell lines = assay: NCI-60 cancer cell line drug screen (GI50, MGM); assay type: cell-based, human; details: Homo sapiens; for GI50: read-out: Antiproliferative Activities [GI50 (μM)]
Description: Cancer cells were incubated with the test compounds at five concentrations ranging from 100 μM to 10 nM for 48 h. […] The approximate average of GI50 values across the entire panel of NCI-60 cancer cell lines for each compound was recorded as the MGM value.

[1] = tested on: MYC protein expression in MCF-7 breast cancer cells; assay: Western blotting of MYC protein level in MCF-7 cells; assay type: cell-based, human; details: Homo sapiens, MCF7; western blotting, MCF-7 cells, 0.5, 1, 2, and 4 μM, 24 hours; read-out: MYC Inhibition
How it was run: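 Immunoblotting with ECL detection quantified MYC, with GAPDH (1:2000) as reference and anti-MYC at 1:1000.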

human topoisomerase I = molecular target: T1, human topoisomerase I (Homo sapiens, UniProt P11387); details: relative topoisomerase I inhibition levels, previously determined, six levels (0 - 5, +++++ = 5); cited from earlier work
T1 sequence (P11387 1-765): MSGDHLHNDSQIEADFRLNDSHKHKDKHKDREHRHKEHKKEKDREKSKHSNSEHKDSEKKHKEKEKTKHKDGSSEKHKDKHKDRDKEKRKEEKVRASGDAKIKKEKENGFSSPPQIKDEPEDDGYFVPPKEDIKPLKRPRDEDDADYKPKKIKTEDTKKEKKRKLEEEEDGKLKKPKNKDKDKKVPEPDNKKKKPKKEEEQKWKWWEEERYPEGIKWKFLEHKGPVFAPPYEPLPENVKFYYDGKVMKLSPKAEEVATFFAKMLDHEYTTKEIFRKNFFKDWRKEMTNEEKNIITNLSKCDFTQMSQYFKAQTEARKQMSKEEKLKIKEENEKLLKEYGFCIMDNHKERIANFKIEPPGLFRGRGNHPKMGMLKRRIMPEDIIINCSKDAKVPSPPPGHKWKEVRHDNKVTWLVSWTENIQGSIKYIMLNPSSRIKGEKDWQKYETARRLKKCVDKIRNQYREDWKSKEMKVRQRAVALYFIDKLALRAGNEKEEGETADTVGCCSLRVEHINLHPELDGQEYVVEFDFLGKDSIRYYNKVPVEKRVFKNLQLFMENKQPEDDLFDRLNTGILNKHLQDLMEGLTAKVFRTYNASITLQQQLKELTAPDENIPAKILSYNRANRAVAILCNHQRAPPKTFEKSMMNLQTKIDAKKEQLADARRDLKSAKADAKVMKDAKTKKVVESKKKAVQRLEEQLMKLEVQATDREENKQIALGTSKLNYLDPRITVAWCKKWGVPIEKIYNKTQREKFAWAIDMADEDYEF

CN(C)CCCn1c2c(c3ccc(-c4ccn[nH]4)cc3c1=O)C(=O)c1ccccc1-2 [Compound 30]
GI50 (NCI-60 cancer cell lines; 786-0, Renal Cancer, 786-0): 0.22 µM | GI50 (NCI-60 cancer cell lines; A498, Renal Cancer, A498): 10.6 µM | GI50 (NCI-60 cancer cell lines; A549, Non-Small Cell Lung Cancer, A549/ATCC): 0.06 µM | GI50 (NCI-60 cancer cell lines; ACHN, Renal Cancer, ACHN): 0.09 µM | GI50 (NCI-60 cancer cell lines; BT-549, Breast Cancer, BT-549): 3.1 µM | GI50 (NCI-60 cancer cell lines; CCRF-CEM, Leukemia, CCRF-CEM): 0.03 µM | GI50 (NCI-60 cancer cell lines; COLO 205, Colon Cancer, COLO 205): 4.92 µM | GI50 (NCI-60 cancer cell lines; DU-145, Prostate Cancer, DU-145): 0.2 µM | GI50 (NCI-60 cancer cell lines; EKVX, Non-Small Cell Lung Cancer, EKVX): 2.91 µM | GI50 (NCI-60 cancer cell lines; HCC 2998, Colon Cancer, HCC-2998): 10 µM | GI50 (NCI-60 cancer cell lines; HCT-15, Colon Cancer, HCT-15): 0.09 µM | GI50 (NCI-60 cancer cell lines; HCT-116, Colon Cancer, HCT-116): 0.39 µM | GI50 (NCI-60 cancer cell lines; HL-60, Leukemia, HL-60(TB)): 0.03 µM | GI50 (NCI-60 cancer cell lines; HOP-62, Non-Small Cell Lung Cancer, HOP-62): 0.18 µM | GI50 (NCI-60 cancer cell lines; HOP-92, Non-Small Cell Lung Cancer, HOP-92): 0.13 µM | GI50 (NCI-60 cancer cell lines; HT-29, Colon Cancer, HT29): 0.34 µM | GI50 (NCI-60 cancer cell lines; Hs-578T, Breast Cancer, HS 578T): 4.9 µM | GI50 (NCI-60 cancer cell lines; IGROV-1, Ovarian Cancer, IGROV1): 0.58 µM | GI50 (NCI-60 cancer cell lines; K562, Leukemia, K-562): 0.34 µM | GI50 (NCI-60 cancer cell lines; KM12, Colon Cancer, KM12): 0.53 µM | GI50 (NCI-60 cancer cell lines; LOX IMVI, Melanoma, LOX IMVI): 0.1 µM | GI50 (NCI-60 cancer cell lines; Leukemia, SR): 0.02 µM | GI50 (NCI-60 cancer cell lines; MCF7, Breast Cancer, MCF7): 0.04 µM | GI50 (NCI-60 cancer cell lines; MDA-MB-231, Breast Cancer, MDA-MB-231/ATCC): 1.27 µM | GI50 (NCI-60 cancer cell lines; MDA-MB-435, Melanoma, MDA-MB-435): 10.3 µM | GI50 (NCI-60 cancer cell lines; MDA-MB-468, Breast Cancer, MDA-MB-468): 7.84 µM | GI50 (NCI-60 cancer cell lines; MOLT-4, Leukemia, MOLT-4): 0.02 µM | GI50 (NCI-60 cancer cell lines; Malme-3M, Melanoma, MALME-3M): 0.93 µM | GI50 (NCI-60 cancer cell lines; Melanoma, M14): 1.65 µM | GI50 (NCI-60 cancer cell lines; NCI-H23, Non-Small Cell Lung Cancer, NCI-H23): 0.24 µM | GI50 (NCI-60 cancer cell lines; NCI-H226, Non-Small Cell Lung Cancer, NCI-H226): 0.27 µM | GI50 (NCI-60 cancer cell lines; NCI-H322M, Non-Small Cell Lung Cancer, NCI-H322M): 7.05 µM | GI50 (NCI-60 cancer cell lines; NCI-H460, Non-Small Cell Lung Cancer, NCI-H460): 0.04 µM | GI50 (NCI-60 cancer cell lines; NCI-H522, Non-Small Cell Lung Cancer, NCI-H522): 0.84 µM | GI50 (NCI-60 cancer cell lines; OVCAR-3, Ovarian Cancer, OVCAR-3): 6.09 µM | GI50 (NCI-60 cancer cell lines; OVCAR-4, Ovarian Cancer, OVCAR-4): 1.45 µM | GI50 (NCI-60 cancer cell lines; OVCAR-5, Ovarian Cancer, OVCAR-5): 1.51 µM | GI50 (NCI-60 cancer cell lines; OVCAR-8, Ovarian Cancer, OVCAR-8): 0.16 µM | GI50 (NCI-60 cancer cell lines; Ovarian Cancer, NCl/ADR-RES): 1.48 µM | GI50 (NCI-60 cancer cell lines; Prostate Cancer, PC-3): 1.21 µM | GI50 (NCI-60 cancer cell lines; RPMI-8226, Leukemia, RPMI-8226): 0.12 µM | GI50 (NCI-60 cancer cell lines; RXF 393, Renal Cancer, RXF 393): 1.66 µM | GI50 (NCI-60 cancer cell lines; Renal Cancer, U0-31): 0.3 µM | GI50 (NCI-60 cancer cell lines; SF-268, CNS Cancer, SF-268): 1.85 µM | GI50 (NCI-60 cancer cell lines; SF-295, CNS Cancer, SF-295): 0.36 µM | GI50 (NCI-60 cancer cell lines; SF-539, CNS Cancer, SF-539): 1.04 µM | GI50 (NCI-60 cancer cell lines; SK-MEL-2, Melanoma, SK-MEL-2): 18.2 µM | GI50 (NCI-60 cancer cell lines; SK-MEL-5, Melanoma, SK-MEL-5): 0.48 µM | GI50 (NCI-60 cancer cell lines; SK-MEL-28, Melanoma, SK-MEL-28): 2.01 µM | GI50 (NCI-60 cancer cell lines; SK-OV-3, Ovarian Cancer, SK-OV-3): 1.21 µM | GI50 (NCI-60 cancer cell lines; SN12C, Renal Cancer, SN12C): 0.25 µM | GI50 (NCI-60 cancer cell lines; SNB-19, CNS Cancer, SNB-19): 0.33 µM | GI50 (NCI-60 cancer cell lines; SNB-75, CNS Cancer, SNB-75): 1.39 µM | GI50 (NCI-60 cancer cell lines; SW-620, Colon Cancer, SW-620): 0.2 µM | GI50 (NCI-60 cancer cell lines; T47D, Breast Cancer, T-47D): 0.63 µM | GI50 (NCI-60 cancer cell lines; TK-10, Renal Cancer, TK-10): 2.75 µM | GI50 (NCI-60 cancer cell lines; U-251, CNS Cancer, U251): 0.18 µM | GI50 (NCI-60 cancer cell lines; UACC-62, Melanoma, UACC-62): 0.72 µM | GI50 (NCI-60 cancer cell lines; UACC-257, Melanoma, UACC-257): 12.3 µM | mean GI50 across NCI-60 panel (MGM) (NCI-60 cancer cell lines; average of GI50 values across the entire panel of NCI-60 cancer cell lines): 600 nM | minimal effective concentration [1]: 4 µM | Top1 Inhibiton (human topoisomerase I): 0 (no inhibition, 0, no MYC expression inhibition up to 4.0 μM)
